We go through 35 compounds from US9090593B2, “Bicyclic compounds as Pim inhibitors” (AMGEN INC., priority 2010, dated 2015).

For assay [1], the target named is T1, full length recombinant Pim-1 protein (Homo sapiens, UniProt P11309).
T1 construct: by full length recombinant Pim-1, Pim-2, or Pim-3 protein; hexahistidine tag followed by a thrombin cleavage site (N); made in house; host or cells: Sf9 (baculovirus) or E. coli (pET28)
The assay is described as follows: Pim-1 enzyme assay (HTRF, phosphorylation of biotinylated-BAD (S112) peptide). It is filed as biochemical. Particulars: read-out: Pim_1_IC50. From the text:
(§1) These cDNAs were used as templates in PCR reactions to produce full-length DNA clones of the PIMs. […] PCR products were digested with […] and EcoRI for Pim-1 and BamHI and EcoRI for Pim-2 and ligated into a modified baculovirus transfer vector (pFastBac1) cleaved with BamHI and EcoRI. For bacterial expression, the same cleaved PCR products encoding Pim-1 or Pim-2 were ligated into a modified E. coli expression vector pET28(a) cleaved with BamHI and EcoRI Amino-terminal hexahistidine tags followed by a thrombin cleavage site were previously added to the vectors using standard methods of molecular biology. Recombinant baculoviruses expressing Pim-1 or Pim-2 were made using standard methods (Fastbac manual, Invitrogen, Carlsbad, Calif.). Infection of Sf9 cells was done at an m.o.i. of greater than 5 for 24-48 h. Cells were harvested by centrifugation and frozen at −80 C. For E. coli expression, cells carrying pET28-His6-Th-Pim-1 or pET28-His6-Th-Pim-2 were picked from a single colony and grown o/n in LB media. The o/n culture was used to inoculate a 2 liter flask with 500 mL media. This was grown o/n and used to inoculate 15-20 liters of Terrific Broth in a New Brunswick Scientific fermentor. The E. coli were grown at 37° C. to and OD600>1.6. The temperature was dropped to 18° C. and o/n expression was induced with 0.5 mM IPTG. Cells were harvested by centrifugation and frozen at −80° C.
(§2) This step was repeated 3× and the resin was transferred to a 2.5 cm glass column. Ten column volumes of wash buffer (0.05 M HEPES, pH 8.0, 0.1 M NaCl, 0.01 M 2-mercaptoethanol, 10% (w/v) glycerol) were applied to the resin followed by 10 column volumes of elution buffer (0.05 M HEPES, pH 8.0, 0.25 M NaCl, 0.01 M 2-mercaptoethanol, 10% (w/v) glycerol, 0.1 M imidazole). Fractions were analyzed by SDS-PAGE and those containing the protein of interest were pooled and concentrated. The concentrated protein was applied to an Amersham Superdex 75 (XK 26/60) column equilibrated in 0.025 M Tris-HCl, pH 7.5, 0.1 M NaCl, 0.01 M 2-mercaptoethanol, 10% (w/v) glycerol. […] Fractions containing the monomeric protein of interest were pooled, concentrated to ˜2 mg/mL, and stored at −80° C.
(§3) The phosphorylation of biotinylated-BAD (S112) peptide by full length recombinant Pim-1, Pim-2, or Pim-3 protein was detected with streptavidin:Allophycocyanin (APC) conjugate and a europium (Eu) labeled antibody directed against phosphorylated-BAD (S112). […] The fluorescence is directly proportional to the amount of phosphorylated BAD peptide present in the reaction.
(§4) A reference compound was included on each assay plate in order to validate that plate; on one plate of every assay run, two additional reference compounds were included.
(§5) The final buffer conditions were as follows: 60 mM Hepes, pH 7.0, 0.05% BSA, 2 mM DTT. […] The reaction was stopped by the addition of 3 mM EDTA, and fluorescence was measured by an HTRF® Rubystar microplate reader. For each plate, percent of control (POC) values were calculated for each well. Values for the IC50 IP were estimated using a standard 4-parameter logistic model.

For assay [2], the target named is T2, full length recombinant Pim-2 protein (Homo sapiens, UniProt Q9P1W9).
T2 construct: by full length recombinant Pim-1, Pim-2, or Pim-3 protein; hexahistidine tag followed by a thrombin cleavage site (N); made in house; host or cells: Sf9 (baculovirus) or E. coli (pET28)
Kind of assay: Pim-2 enzyme assay (HTRF, phosphorylation of biotinylated-BAD (S112) peptide). The class given is biochemical. Particulars: read-out: Pim2_IC50.
Text: as §1, §2, §3, §4, §5

Where a name gives a salt, the structure may show the parent alone.

T1 sequence (P11309 whole entry): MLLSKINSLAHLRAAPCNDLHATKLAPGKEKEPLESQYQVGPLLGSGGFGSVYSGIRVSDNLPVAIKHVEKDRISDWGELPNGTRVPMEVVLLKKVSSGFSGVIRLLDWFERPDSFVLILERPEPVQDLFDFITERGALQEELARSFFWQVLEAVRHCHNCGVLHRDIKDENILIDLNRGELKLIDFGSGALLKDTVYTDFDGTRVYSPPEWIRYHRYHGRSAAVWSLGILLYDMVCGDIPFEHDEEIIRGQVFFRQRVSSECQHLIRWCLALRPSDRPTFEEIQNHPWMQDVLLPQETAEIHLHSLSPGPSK
T2 sequence (Q9P1W9 whole entry): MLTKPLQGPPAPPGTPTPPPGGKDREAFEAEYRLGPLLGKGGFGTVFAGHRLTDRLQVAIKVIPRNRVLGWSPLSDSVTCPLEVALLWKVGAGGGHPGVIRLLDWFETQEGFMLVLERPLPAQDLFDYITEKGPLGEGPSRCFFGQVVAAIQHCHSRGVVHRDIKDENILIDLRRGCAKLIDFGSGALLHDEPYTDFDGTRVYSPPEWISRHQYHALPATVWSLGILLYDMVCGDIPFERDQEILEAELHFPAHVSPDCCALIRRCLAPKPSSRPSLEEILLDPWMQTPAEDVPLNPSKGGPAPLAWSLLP

On to `N#Cc1ccc(-c2ccc3[nH]cc(-c4cncc(O[C@@H]5CCCNC5)n4)c3c2)cc1F` [Example 296], for which the IC50 in assay [1] worked out at 0.037 µM; in assay [2] it was 0.055 µM.
For the compound `Clc1cncc(-c2ccc3[nH]cc(-c4cncc(O[C@@H]5CCCNC5)n4)c3c2)c1` [Example 505], the IC50 was determined as 0.029 µM in assay [1] and 0.225 µM in assay [2].
Consider `Cc1ccc(C(F)(F)F)cc1-c1ccc2[nH]cc(-c3cncc(O[C@@H]4CCCNC4)n3)c2c1` [Example 353], for which the values for the IC50 in assay [1] and in assay [2] were 0.159 µM and 0.889 µM, respectively.
Turning to `CC(C)Oc1cncc(-c2ccc3[nH]cc(-c4nn(C(C)C)c(=O)o4)c3c2)n1` [Example 281, 5-(5-(6-isopropoxypyrazin-2-yl)-1H-indol-3-yl)-3-isopropyl-1,3,4-oxadiazol-2(3H)-one], the IC50 in assay [1] came to 0.07 µM; in assay [2] it was 0.597 µM.
With `COC(=O)c1ccc2[nH]cc(-c3ccnc(N[C@@H]4CCCNC4)n3)c2c1` [Example 533], the IC50 in assay [1] was 0.105 µM; in assay [2], 0.237 µM.
As to `CC(C)Oc1cncc(-c2n[nH]c3ccc(-c4cnn(C(C)C)c4)cc23)n1` [Example 387], the IC50 in assay [1] worked out at 0.093 µM; in assay [2] it was 0.23 µM.
For the compound `CN(C)C(=O)c1ccc2[nH]nc(-c3cncc(O[C@@H]4CCCNC4)n3)c2c1` [Example 556], the IC50 in assay [1] and in assay [2] was over 1 µM in each case.
In the case of `CN(C)C(=O)c1ccc2[nH]nc(-c3ccnc(O[C@@H]4CCCNC4)n3)c2c1` [Example 557], the IC50 in assay [1] and in assay [2] was over 1 µM throughout.
`CC1CCCCN1c1nc(-c2ccc3[nH]cc(-c4cncc(O[C@@H]5CCCNC5)n4)c3c2)cs1` (stereo partly shown) [Example 501]: the IC50 was 0.091 µM in assay [1] and 0.812 µM in assay [2].
For `c1cc2[nH]cc(-c3cncc(O[C@@H]4CCCNC4)n3)c2cc1-c1cncc(OC2CCCC2)n1` [Example 318] the same measures were 0.035 µM and 0.347 µM.
As to `OC1CN(c2cncc(-c3n[nH]c4ccc(-c5c(F)cccc5F)cc34)n2)CC1O` (stereo not shown) [Example 449], the IC50 amounted to 0.159 µM in assay [1] and 0.639 µM in assay [2].
As to `COc1cc(-c2c[nH]c3ccc(-c4c(F)cccc4F)cc23)nc(O[C@@H]2CCCNC2)n1` [Example 493], the IC50 in assay [1] is 0.834 µM; in assay [2], 0.653 µM.
Regarding `COc1cc(C#N)cc(-c2ccc3[nH]cc(-c4cncc(O[C@@H]5CCCNC5)n4)c3c2)c1OC(C)C` [Example 354], the IC50 in assay [1] is 0.834 µM; in assay [2], over 1 µM.
As to `COc1ncccc1-c1ccc2[nH]cc(-c3cncc(O[C@@H]4CCCNC4)n3)c2c1` [Example 328], the figures for the IC50 in assay [1] and in assay [2] were 0.028 µM and 0.141 µM, respectively.
With `COc1cc(N[C@@H]2CCCNC2)nc(-c2c[nH]c3ccc(-c4c(F)cccc4F)cc23)n1` [Example 479], the IC50 in assay [1] was 0.112 µM; in assay [2] it was 0.077 µM.
With `CN(C)c1nc(-c2c[nH]c3ccc(-c4c(F)cccc4F)cc23)cc(=O)[nH]1` [Example 492], the IC50 in assay [1] is 0.046 µM; in assay [2], 0.109 µM.
Consider `COC(=O)c1ccc2[nH]nc(-c3nccc(NC4CCNCC4)n3)c2c1` [Example 485], for which the IC50 in assay [1] and in assay [2] was 0.026 µM each time.
For the compound `OCCc1ccc2[nH]nc(-c3cncc(O[C@H]4CNCCC45CC5)n3)c2c1` [Example 270, 2-(3-(6-((4R)-6-azaspiro[25]oct-4-yloxy)-2-pyrazinyl)-1H-indazol-5-yl)ethanol hydrochloride], the results for the IC50 in assay [1] and in assay [2] were 0.046 µM and 0.166 µM, respectively.
Consider `CCCOc1c(OC)cc(C#N)cc1-c1ccc2[nH]cc(-c3cncc(O[C@@H]4CCCNC4)n3)c2c1` [Example 348], for which the IC50 in assay [1] is 0.364 µM; in assay [2], over 1 µM.
As for `CC(C)Oc1cncc(-c2ccc3[nH]cc(-c4nnc(N5CCC(N)CC5)o4)c3c2)n1` [Example 280, 1-(5-(5-(6-isopropoxypyrazin-2-yl)-1H-indol-3-yl)-1,3,4-oxadiazol-2-yl)piperidin-4-amine], the IC50 in assay [1] worked out at 0.022 µM; in assay [2], 0.161 µM.
For the compound `CC(C)c1ccc(-c2ccc3[nH]cc(-c4cncc(O[C@@H]5CCCNC5)n4)c3c2)cc1` [Example 322], the values for the IC50 in assay [1] and in assay [2] were 0.031 µM and 0.099 µM, respectively.
In the same order, the values of `Fc1cccc(F)c1-c1ccc2[nH]nc(-c3cncc(OC4CCNCC45CC5)n3)c2c1` (single isomer, unassigned) [Example 429] are 0.03 µM and 0.076 µM.
In the case of `FC(F)(F)COc1cncc(-c2n[nH]c3ccc(-c4cncc(C5CC5)n4)cc23)n1` [Example 363], the IC50 in assay [1] is 0.057 µM; in assay [2] it was 0.253 µM.
On to `Cc1cccc(-c2ccc3[nH]cc(-c4cncc(O[C@@H]5CCCNC5)n4)c3c2)c1C` [Example 330], for which the IC50 came out at 0.054 µM in assay [1] and 0.268 µM in assay [2].
As to `C=C(Cl)c1ccccc1-c1ccc2[nH]nc(-c3cncc(O[C@H]4CNCCC45CC5)n3)c2c1` [Example 267, 3-(6-((4R)-6-azaspiro[25]oct-4-yloxy)-2-pyrazinyl)-5-(2-(1-chloroethenyl)phenyl)-1H-indazole bis(2,2,2-trifluoroacetate)], the IC50 in assay [1] worked out at 0.03 µM; in assay [2] it was 0.044 µM.
Turning to `C#Cc1ccccc1-c1ccc2[nH]nc(-c3cncc(O[C@H]4CNCCC45CC5)n3)c2c1` [Example 266, 3-(6-((4R)-6-azaspiro[25]oct-4-yloxy)-2-pyrazinyl)-5-(2-ethynylphenyl)-1H-indazole bis(2,2,2-trifluoroacetate)], the results for the IC50 in assay [1] and in assay [2] were 0.013 µM and 0.044 µM, respectively.
In the case of `CN(C)C(=O)c1ccc2[nH]nc(-c3ccnc(NC4CCNCC4)n3)c2c1` [Example 561], the IC50 in assay [1] and in assay [2] was over 1 µM in each case.
As for `CN1CCC(Oc2cncc(-c3n[nH]c4ccc(-c5c(F)cccc5F)cc34)n2)CC1` [Example 445], the IC50 in assay [1] was determined as 0.02 µM; in assay [2], 0.043 µM.
Turning to `COc1cc(-c2c[nH]c3ccc(-c4c(F)cccc4F)cc23)nc(N[C@@H]2CCCNC2)n1` [Example 278, (R)-4-(5-(2,6-difluorophenyl)-1H-indol-3-yl)-6-methoxy-N-(piperidin-3-yl)pyrimidin-2-amine], the values for the IC50 in assay [1] and in assay [2] were 0.565 µM and 0.7 µM, respectively.
Turning to `O=C(NC1CC1)c1ccc(F)c(-c2ccc3[nH]nc(-c4cncc(OCCF)n4)c3c2)c1` [Example 389], the IC50 came to 0.173 µM in assay [1] and 0.2 µM in assay [2].
Turning to `COc1cc(C#N)cc(-c2ccc3[nH]cc(-c4cncc(O[C@@H]5CCCNC5)n4)c3c2)c1OC` [Example 346], the IC50 in assay [1] amounted to 0.105 µM; in assay [2], 0.363 µM.
For `c1cc(C2CC2)nc(-c2ccc3[nH]cc(-c4cncc(C5CC5)n4)c3c2)n1` [Example 370] the same measures were 0.126 µM and over 1 µM.
Regarding `COC(=O)c1ccc2[nH]cc(-c3cncc(N[C@@H]4CCCNC4)n3)c2c1` [Example 532], the IC50 in assay [1] was 0.004 µM; in assay [2], 0.056 µM.
In the same order, the values of `COC(=O)c1ccc2[nH]nc(-c3nccc(N[C@@H]4CCCNC4)n3)c2c1` [Example 486] are 0.072 µM and 0.543 µM.
As to `OC1CN(c2cncc(-c3n[nH]c4ccc(-c5c(F)cccc5F)cc34)n2)CC1O` (stereo not shown) [Example 450], the results for the IC50 in assay [1] and in assay [2] were 0.159 µM and 0.453 µM, respectively.
